One block for each compound: values may come before it.
What was measured:
[1] = biological target: T1, Bromodomain-containing protein 4 (Homo sapiens, UniProt O60885); test: Inhibition of BRD4 BD1 (unknown origin)
[2] = biological target: T1, Bromodomain-containing protein 4; test: Inhibition of BRD4 BD2 (unknown origin)
[3] = biological target: T2, Histone deacetylase 8 (Homo sapiens, UniProt Q9BY41); test: Inhibition of human recombinant HDAC8 using BML-KI178-0005 as substrate incubated for 10 mins by fluorescence based assay
T2 sequence (Q9BY41 whole entry): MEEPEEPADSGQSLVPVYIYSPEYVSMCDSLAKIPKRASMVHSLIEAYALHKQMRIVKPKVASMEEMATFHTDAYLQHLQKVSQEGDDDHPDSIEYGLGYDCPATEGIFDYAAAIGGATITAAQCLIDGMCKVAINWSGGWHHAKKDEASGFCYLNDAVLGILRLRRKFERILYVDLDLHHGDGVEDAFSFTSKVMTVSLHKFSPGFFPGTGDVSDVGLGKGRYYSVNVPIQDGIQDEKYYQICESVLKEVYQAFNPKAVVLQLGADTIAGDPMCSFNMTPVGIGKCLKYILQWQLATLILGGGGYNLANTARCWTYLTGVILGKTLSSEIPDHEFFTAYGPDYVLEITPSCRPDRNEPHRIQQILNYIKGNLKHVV

[4] = biological target: CDK6/cyclin D3 (Homo sapiens, UniProt Q00534); test: Binding affinity to CDK6/Cyclin D3 (unknown origin) assessed as inhibition constant by radiometric assay; type: protein-complex assay
Sequence of CDK6/cyclin D3 (P30281 whole entry): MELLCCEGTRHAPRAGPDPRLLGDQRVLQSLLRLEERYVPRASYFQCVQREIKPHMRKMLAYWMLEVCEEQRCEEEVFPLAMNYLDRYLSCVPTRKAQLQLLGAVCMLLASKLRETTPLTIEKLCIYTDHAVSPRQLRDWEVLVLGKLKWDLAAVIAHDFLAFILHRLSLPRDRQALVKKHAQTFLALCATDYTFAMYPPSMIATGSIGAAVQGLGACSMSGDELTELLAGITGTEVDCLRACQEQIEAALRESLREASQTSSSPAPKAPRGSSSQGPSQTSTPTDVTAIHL
Sequence of CDK6/cyclin D3 (Q00534 whole entry): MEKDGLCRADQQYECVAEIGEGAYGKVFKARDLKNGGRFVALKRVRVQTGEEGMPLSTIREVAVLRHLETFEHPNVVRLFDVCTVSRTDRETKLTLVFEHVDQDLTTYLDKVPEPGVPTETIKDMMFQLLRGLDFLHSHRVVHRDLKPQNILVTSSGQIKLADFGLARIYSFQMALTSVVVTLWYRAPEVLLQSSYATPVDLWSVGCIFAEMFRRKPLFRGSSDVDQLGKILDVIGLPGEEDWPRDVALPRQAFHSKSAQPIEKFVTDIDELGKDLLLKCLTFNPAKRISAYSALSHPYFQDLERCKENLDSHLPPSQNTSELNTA

[5] = biological target: T3, Poly [ADP-ribose] polymerase 1 (Homo sapiens, UniProt P09874); test: Inhibition of PARP1 (unknown origin) incubated for 1 hr by colorimetry
T3 sequence (P09874 whole entry): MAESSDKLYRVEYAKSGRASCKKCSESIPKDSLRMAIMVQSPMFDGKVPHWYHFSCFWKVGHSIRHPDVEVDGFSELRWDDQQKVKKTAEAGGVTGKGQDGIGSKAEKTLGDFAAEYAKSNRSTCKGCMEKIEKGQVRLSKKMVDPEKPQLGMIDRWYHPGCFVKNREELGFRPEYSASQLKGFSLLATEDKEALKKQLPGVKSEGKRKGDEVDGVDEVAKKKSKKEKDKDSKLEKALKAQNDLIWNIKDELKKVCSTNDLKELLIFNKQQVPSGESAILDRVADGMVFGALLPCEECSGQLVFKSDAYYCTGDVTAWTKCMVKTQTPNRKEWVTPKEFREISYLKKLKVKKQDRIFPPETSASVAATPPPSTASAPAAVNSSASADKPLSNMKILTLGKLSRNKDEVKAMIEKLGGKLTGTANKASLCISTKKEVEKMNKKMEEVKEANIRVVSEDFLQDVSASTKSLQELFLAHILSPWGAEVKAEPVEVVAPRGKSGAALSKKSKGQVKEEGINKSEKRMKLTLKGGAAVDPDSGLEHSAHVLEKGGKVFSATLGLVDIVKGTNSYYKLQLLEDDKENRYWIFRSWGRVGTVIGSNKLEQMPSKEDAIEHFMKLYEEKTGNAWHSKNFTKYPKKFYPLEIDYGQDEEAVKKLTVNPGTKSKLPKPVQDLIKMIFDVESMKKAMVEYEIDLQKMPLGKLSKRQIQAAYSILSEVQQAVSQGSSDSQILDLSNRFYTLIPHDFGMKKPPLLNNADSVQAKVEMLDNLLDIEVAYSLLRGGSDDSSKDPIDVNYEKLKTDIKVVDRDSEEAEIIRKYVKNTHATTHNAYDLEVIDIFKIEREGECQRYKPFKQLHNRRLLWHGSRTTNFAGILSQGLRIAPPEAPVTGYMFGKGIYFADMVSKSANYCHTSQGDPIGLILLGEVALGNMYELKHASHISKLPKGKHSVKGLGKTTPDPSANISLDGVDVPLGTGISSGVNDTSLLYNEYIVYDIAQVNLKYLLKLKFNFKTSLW

[6] = biological target: T3, Poly [ADP-ribose] polymerase 1; test: Inhibition of PARP1 (unknown origin) using NAD+ as substrate incubated for 30 mins by fluorescence based assay
[7] = test system: MDA-MB-436; test: Antiproliferative activity against BRCA1 deficient human MDA-MB-436 cells assessed as reduction in cell viability incubated for 96 hrs by MTT assay; type: functional, cell-based; details: MDA-MB-436, 96 h
[8] = biological target: Serine/threonine-protein kinase PLK1 (Homo sapiens, UniProt P53350); test: Inhibition of PLK1-PBD (unknown origin) using FITC-GPMQSpTPLNG-OH as substrate incubated for 30 mins by fluorescence polarization assay
Sequence of Serine/threonine-protein kinase PLK1 (P53350 whole entry): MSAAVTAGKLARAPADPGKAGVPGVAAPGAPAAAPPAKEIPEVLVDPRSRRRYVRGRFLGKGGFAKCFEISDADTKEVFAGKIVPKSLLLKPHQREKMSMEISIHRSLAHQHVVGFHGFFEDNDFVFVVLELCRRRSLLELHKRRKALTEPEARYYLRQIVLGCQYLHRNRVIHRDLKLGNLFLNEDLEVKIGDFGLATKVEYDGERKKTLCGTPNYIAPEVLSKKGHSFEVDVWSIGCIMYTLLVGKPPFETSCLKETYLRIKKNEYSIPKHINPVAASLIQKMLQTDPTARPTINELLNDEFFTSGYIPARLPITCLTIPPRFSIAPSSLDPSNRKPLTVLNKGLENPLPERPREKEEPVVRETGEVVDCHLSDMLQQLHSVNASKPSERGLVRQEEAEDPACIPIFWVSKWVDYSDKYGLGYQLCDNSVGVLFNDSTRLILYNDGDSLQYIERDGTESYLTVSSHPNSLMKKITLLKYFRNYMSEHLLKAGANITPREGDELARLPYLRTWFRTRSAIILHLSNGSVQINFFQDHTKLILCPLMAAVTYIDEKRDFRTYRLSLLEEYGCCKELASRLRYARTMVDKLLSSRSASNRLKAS

[9] = test system: MX1; test: Cytotoxicity against human MX1 cells assessed as cell survival incubated for 72 hrs by MTT assay; type: functional, cell-based; details: MX1, 72 h

SMILES: O=C(CCN1CCN(C(=O)Nc2ccnc3ccccc23)CC1)NO
IC50 [3]: 1740 nM

SMILES: CC(c1nc2c(C(N)=O)cccc2[nH]1)N1CC(=O)N(c2ccc(C(F)(F)F)cc2)C1=S (centres undefined)
IC50 [6]: 25 nM | IC50 [7]: 1000 nM

SMILES: O=C(CCNC(=O)c1ccc(CO)cc1)N[C@@H](Cc1cnnn1CCc1ccccc1)C(=O)NCc1cn(CCP(=O)(O)O)nn1
IC50 [8]: 3370 nM

SMILES: CC(C)N1CCC(NC(=O)c2cc(Cn3c(=O)[nH]c(=O)c4ccccc43)ccc2F)C1 (centres undefined)
IC50 [9]: < 3120 nM

The remaining lines, values ahead:

IC50 [1]: 2150 nM | IC50 [2]: 4360 nM
SMILES: C#CCSc1nc2nc(C)cc(Nc3cc(-c4ccccc4)[nH]n3)n2n1

Ki [4]: 13.4 nM
SMILES: CC(=O)N1N=C(c2c(O)c3ccccc3oc2=O)CC1c1ccccc1Cl (centres undefined)

IC50 [5]: 36 nM
SMILES: O=C(c1ccc(Cc2n[nH]c(=O)c3cccnc23)cc1)n1cccc1

From ChEMBL document CHEMBL5126500, “Small-molecule inhibitors of breast cancer-related targets: Potential therapeutic agents for breast cancer” (Eur J Med Chem, 2021)
